Non-standard residues stand in square brackets, D forms with d. Residues, ends and D or L forms follow the SMILES beside them. *: point of attachment. Tyr(3-NO2) = N[C@@H](Cc1ccc(O)c([N+](=O)[O-])c1)C(=O)O; Hyp = O=C(O)[C@@H]1C[C@@H](O)CN1; 3Pal = N[C@@H](Cc1cccnc1)C(=O)O; Tic = O=C(O)[C@@H]1Cc2ccccc2CN1; Cha = N[C@@H](CC1CCCCC1)C(=O)O; hLeu = CC(C)CC[C@H](N)C(=O)O; Ac6c = NC1(C(=O)O)CCCCC1; Nle = CCCC[C@H](N)C(=O)O; 2Abz = Nc1ccccc1C(=O)O; Piv = CC(C)(C)C(=O)*; Ahx = NCCCCCC(=O)O
Target: T1, Der pI (Dermatophagoides pteronyssinus, UniProt P08176)
T1 construct: tissue SmithKline-Beecham, U.K (crude mite extract); host or cells: crude house dust mite extract
T1 sequence (P08176 99-320): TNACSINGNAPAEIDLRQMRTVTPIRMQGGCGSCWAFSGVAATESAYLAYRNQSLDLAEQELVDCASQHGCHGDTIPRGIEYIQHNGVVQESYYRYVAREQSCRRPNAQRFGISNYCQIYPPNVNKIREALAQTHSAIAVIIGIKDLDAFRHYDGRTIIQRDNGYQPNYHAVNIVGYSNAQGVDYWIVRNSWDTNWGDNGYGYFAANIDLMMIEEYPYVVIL
Assay: Der pI substrate assay with FRET peptides (fluorescence, Km, kcat/Km)
Type: biochemical, house dust mite
Design: key: NS indicates that the peptide was not hydrolysed by Der pI.; NM indicated that the peptide was a substrate for Der pI, but the Km was not measured.; NM^a indicates that the peptide was a substrate for Der pI, and its cleavage was followed by HPLC-MS showing hydrolysis to occur between-Nle-Ser-
Details: purified Der pI; peptides SEQ ID Nos. 1-76
Description: Using the general techniques described above, the following compounds were prepared and assayed as potential substrates against Der pI purified as described above.
Each mixture of 20 compounds in the libraries of the apparatus described herein was screened at a concentration of 1.0 μM per compound in an assay against the cysteinyl protease Der pI.
Plate assays were carried out in 96 well plate format, using 0.1 ug of Der pI per 100 μL assay volume in each well and using 20 μM of the substrate. All assays were performed in Assay Buffer (AB; 50 mM potassium phosphate, pH 8.25 containing 1 mM ethylenediaminetetraacetic acid (EDTA) and 1 mM dithiothreitol (DTT). The Der pI enzyme is pre-activated by addition of DTT and this in incubated at room temperature for 5 min. prior to initiation of the assay. As an example for the screening methodology, each well contains a 5 μL of a 20 μM solution of the test compound in DMSO, 10 μL of a 200 μM aqueous solution of the substrate, 2, and 85 μL of Der pI in AB is added to initiate the reaction. Enzyme activity is monitored by fluorescence using 320 nm for excitation and 420 nm for the emission wavelengths using a Labsystems Fluroskan Ascent machine. Kinetic measurements were carried out using a Hitachi F-4500 Fluorescence Spectrophotometer.

Compound	substrate or not substrate for Der pI (symbols in Measured Km)
CCCC[C@H](NC(=O)[C@H](C)NC(=O)[C@@H](NC(=O)[C@@H]1C[C@@H](O)CN1C(=O)c1ccccc1N)C(C)C)C(=O)N[C@@H](CO)C(=O)N[C@@H](Cc1ccc(O)c([N+](=O)[O-])c1)C(=O)N[C@@H](CC(=O)O)C(N)=O [Abz-Hyp-Val-Ala-Nle-Ser-Tyr(NO2)-Asp-NH2] (H-[2Abz][Hyp]VA[Nle]S[Tyr(3-NO2)]D-NH2)	NS
CCCC[C@H](NC(=O)[C@H](C)NC(=O)[C@@H](NC(=O)c1ccccc1N)C(C)C)C(=O)N[C@@H](CO)C(=O)N[C@@H](Cc1ccc(O)c([N+](=O)[O-])c1)C(N)=O [Abz-Val-Ala-Nle-Ser-Tyr(NO2)-NH2] (H-[2Abz]VA[Nle]S[Tyr(3-NO2)]-NH2)	NM
CC(C)CC[C@H](NC(=O)[C@H](C)NC(=O)[C@H](NC(=O)c1ccccc1N)C(C)C)C(=O)N[C@@H](CO)C(=O)N[C@@H](Cc1ccc(O)c([N+](=O)[O-])c1)C(=O)N[C@@H](CC(=O)O)C(N)=O [Abz-DVal-Ala-hLeu-Ser-Tyr(NO2)-Asp-NH2] (H-[2Abz][dV]A[hLeu]S[Tyr(3-NO2)]D-NH2)	NS
CCCC[C@H](NC(=O)[C@H](C)NC(=O)[C@@H](NC(C)=O)C(C)C)C(=O)N[C@@H](CO)C(=O)N[C@@H](Cc1ccc(O)c([N+](=O)[O-])c1)C(=O)N[C@@H](CC(=O)O)C(N)=O [Ac-Val-Ala-Nle-Ser-Tyr(NO2)-Asp-NH2] (Ac-VA[Nle]S[Tyr(3-NO2)]D-NH2)	NS
CC(C)CC[C@H](NC(=O)[C@@H]1Cc2ccccc2CN1C(=O)[C@@H](NC(=O)c1ccccc1N)C(C)C)C(=O)N[C@@H](CO)C(=O)N[C@@H](Cc1ccc(O)c([N+](=O)[O-])c1)C(=O)N[C@@H](CC(=O)O)C(N)=O [Abz-Val-Tic-hLeu-Ser-Tyr(NO2)-Asp-NH2] (H-[2Abz]V[Tic][hLeu]S[Tyr(3-NO2)]D-NH2)	NS
n-Bu-Val-Ala-Nle-Ser-Tyr(NO2)-NH2	NM^a
CCCC[C@H](NC(=O)c1ccccc1N)C(=O)N[C@@H](CO)C(=O)N[C@@H](Cc1ccc(O)c([N+](=O)[O-])c1)C(=O)N[C@@H](CC(=O)O)C(N)=O [Abz-Nle-Ser-Tyr(NO2)-Asp-NH2] (H-[2Abz][Nle]S[Tyr(3-NO2)]D-NH2)	NS
CC(C)[C@H](NC(=O)c1ccccc1N)C(=O)N[C@@H](C)C(=O)NC1(C(=O)N[C@@H](CO)C(=O)N[C@@H](Cc2ccc(O)c([N+](=O)[O-])c2)C(=O)N[C@@H](CC(=O)O)C(N)=O)CCCCC1 [Abz-Val-Ala-ACH-Ser-Tyr(NO2)-Asp-NH2] (H-[2Abz]VA[Ac6c]S[Tyr(3-NO2)]D-NH2)	NS
CCCC[C@H](NC(=O)[C@H](C)NC(=O)[C@@H](NC(=O)c1ccccc1N)C(C)C)C(=O)N[C@@H](CO)C(=O)N[C@@H](Cc1ccccc1)C(=O)N[C@@H](CC(=O)O)C(N)=O [Abz-Val-Ala-Nle-Ser-Phe-Asp-NH2] (H-[2Abz]VA[Nle]SFD-NH2)	NM
CCCC[C@H](NC(=O)[C@H](C)NC(=O)[C@@H](NC(=O)c1ccccc1N)C(C)C)C(=O)N[C@@H](CO)C(=O)NCCCCCC(=O)N[C@@H](CC(=O)O)C(N)=O [Abz-Val-Ala-Nle-Ser-eAHA-Asp-NH2] (H-[2Abz]VA[Nle]S[Ahx]D-NH2)	NM
Abz-2.Naph-Val-Ala-Nle-Ser-Tyr(NO2)-Asp-NH2	NM
CC(C)CC[C@H](NC(=O)[C@H](Cc1cccnc1)NC(=O)[C@@H](NC(=O)c1ccccc1N)C(C)C)C(=O)N[C@@H](CO)C(=O)N[C@@H](Cc1ccc(O)c([N+](=O)[O-])c1)C(=O)N[C@@H](CC(=O)O)C(N)=O [Abz-Val-3pyr-hLeu-Ser-Tyr(NO2)-Asp-NH2] (H-[2Abz]V[3Pal][hLeu]S[Tyr(3-NO2)]D-NH2)	NS
CCCC[C@H](NC(=O)[C@H](C)NC(=O)[C@@H](NC(=O)C(C)(C)C)C(C)C)C(=O)N[C@@H](CO)C(=O)N[C@@H](Cc1ccc(O)c([N+](=O)[O-])c1)C(N)=O [Piv-Val-Ala-Nle-Ser-Tyr(NO2)-NH2] (Piv-VA[Nle]S[Tyr(3-NO2)]-NH2)	NM^a
CCCC[C@H](NC(=O)[C@H](C)NC(=O)[C@@H](NC(=O)c1ccccc1N)C(C)C)C(=O)N[C@@H](CO)C(=O)N[C@@H](C)C(=O)N[C@@H](CC(=O)O)C(N)=O [Abz-Val-Ala-Nle-Ser-Ala-Asp-NH2] (H-[2Abz]VA[Nle]SAD-NH2)	NM
CC(C)[C@H](NC(=O)c1ccccc1N)C(=O)N[C@@H](C)C(=O)N1C[C@H](O)C[C@H]1C(=O)N[C@@H](CO)C(=O)N[C@@H](Cc1ccc(O)c([N+](=O)[O-])c1)C(=O)N[C@@H](CC(=O)O)C(N)=O [Abz-Val-Ala-Hyp-Ser-Tyr(NO2)-Asp-NH2] (H-[2Abz]VA[Hyp]S[Tyr(3-NO2)]D-NH2)	NS
CCCC[C@H](NC(=O)[C@H](C)NC(=O)[C@@H](NC(=O)c1ccccc1N)C(C)C)C(=O)N[C@@H](CO)C(=O)N[C@@H](CCCCN)C(=O)N[C@@H](CC(=O)O)C(N)=O [Abz-Val-Ala-Nle-Ser-Lys-Asp-NH2] (H-[2Abz]VA[Nle]SKD-NH2)	NM
Abz-3.Pyr-Val-Ala-Nle-Ser-Tyr(NO2)-Asp-NH2	NM
CCCC[C@H](NC(=O)[C@H](C)NC(=O)[C@@H](NC(=O)[C@H](CC(C)C)NC(=O)c1ccccc1N)C(C)C)C(=O)N[C@@H](CO)C(=O)N[C@@H](Cc1ccc(O)c([N+](=O)[O-])c1)C(=O)N[C@@H](CC(=O)O)C(N)=O [Abz-Leu-Val-Ala-Nle-Ser-Tyr(NO2)-Asp-NH2] (H-[2Abz]LVA[Nle]S[Tyr(3-NO2)]D-NH2)	NM
CC(C)CC[C@H](NC(=O)[C@@H](CCCCN)NC(=O)[C@@H](NC(=O)c1ccccc1N)C(C)C)C(=O)N[C@@H](CO)C(=O)N[C@@H](Cc1ccc(O)c([N+](=O)[O-])c1)C(=O)N[C@@H](CC(=O)O)C(N)=O [Abz-Val-DLys-hLeu-Ser-Tyr(NO2)-Asp-NH2] (H-[2Abz]V[dK][hLeu]S[Tyr(3-NO2)]D-NH2)	NS
CC(C)CC[C@H](NC(=O)[C@@H](CCC(N)=O)NC(=O)[C@@H](NC(=O)c1ccccc1N)C(C)C)C(=O)N[C@@H](CO)C(=O)N[C@@H](Cc1ccc(O)c([N+](=O)[O-])c1)C(=O)N[C@@H](CC(=O)O)C(N)=O [Abz-Va1-DGln-hLeu-Ser-Tyr(NO2)-Asp-NH2] (H-[2Abz]V[dQ][hLeu]S[Tyr(3-NO2)]D-NH2)	NS
CCCC[C@H](NC(=O)[C@H](C)N)C(=O)N[C@@H](CO)C(=O)N[C@@H](Cc1ccc(O)c([N+](=O)[O-])c1)C(=O)N[C@@H](CC(=O)O)C(N)=O [H-Ala-Nle-Ser-Tyr(NO2)-Asp-NH2] (H-A[Nle]S[Tyr(3-NO2)]D-NH2)	NS
CC(C)CC[C@H](NC(=O)[C@H](C)NC(=O)C1(NC(=O)c2ccccc2N)CCCCC1)C(=O)N[C@@H](CO)C(=O)N[C@@H](Cc1ccc(O)c([N+](=O)[O-])c1)C(=O)N[C@@H](CC(=O)O)C(N)=O [Abz-ACH-Ala-hLeu-Ser-Tyr(NO2)-Asp-NH2] (H-[2Abz][Ac6c]A[hLeu]S[Tyr(3-NO2)]D-NH2)	NS
CC(C)CC[C@H](NC(=O)[C@H](CC1CCCCC1)NC(=O)[C@@H](NC(=O)c1ccccc1N)C(C)C)C(=O)N[C@@H](CO)C(=O)N[C@@H](Cc1ccc(O)c([N+](=O)[O-])c1)C(=O)N[C@@H](CC(=O)O)C(N)=O [Abz-Val-Cha-hLeu-Ser-Tyr(NO2)-Asp-NH2] (H-[2Abz]V[Cha][hLeu]S[Tyr(3-NO2)]D-NH2)	NS
CCCC[C@H](NC(=O)[C@H](C)NC(=O)[C@@H](NC(=O)[C@H](Cc1ccccc1)NC(=O)c1ccccc1N)C(C)C)C(=O)N[C@@H](CO)C(=O)N[C@@H](Cc1ccc(O)c([N+](=O)[O-])c1)C(=O)N[C@@H](CC(=O)O)C(N)=O [Abz-Phe-Val-Ala-Nle-Ser-Tyr(NO2)-Asp-NH2] (H-[2Abz]FVA[Nle]S[Tyr(3-NO2)]D-NH2)	NM
CCCC[C@H](NC(=O)[C@H](C)NC(=O)[C@@H](NC(=O)c1ccccc1N)C(C)C)C(=O)N[C@@H](CO)C(N)=O [Abz-Val-Ala-Nle-Ser-NH2] (H-[2Abz]VA[Nle]S-NH2)	NM
Chex-Val-Ala-Nle-Ser-Tyr(NO2)-NH2	NM^a

Source: patent publication US6528275B1, “Substrates and inhibitors of proteolytic enzymes” (Peptide Therapeutics Limited, priority 1996, dated 2003)
